How the values were obtained:
[1] = tested on: C. tyrobutyricum ATCC25755; assay: Free-cell culture with organic solution on top of the culture medium (Example 2); format: cell-based; conditions: free cells, 24 hours at 37° C.
Description: The culture medium was then inoculated with 0.08 ml of bacterial stock comprising C. tyrobutyricum ATCC25755. The initial optical density (OD) measured at a wavelength of 600 nm was 0.2. After inoculation, 0.8 ml of an organic solution (as listed in the Table 4 below) was added to the top of the culture medium. The bacteria was then cultured in Tecan infinite 200 Pro Multimode Microplate Readers (Tecan Group Ltd., Switzerland) for 24 hours at 37° C., with shaking once every 30 minutes.

[2] = tested on: PVA-immobilized clostridium tyrobutyricum; assay: 2-liter tank fermentor extractive fermentation (Example 5); format: cell-based; conditions: 37° C., 40 hours
From the text: A 2-liter tank fermentor 500 as illustrated in FIG. 5 was used in this Example. […] The medium was then purged with N2 to reach anaerobiosis. The pH of the basal medium was further adjusted to 6.0 with 2 N NaOH. Subsequently, the medium was inoculated with about 100 g of PVA-immobilized C. tyrobutyricum cell beads prepared as described above. An extractive fermentation-column reactor similar to the one shown in FIG. 5 was used in this example. The lower region of the reactor was filled with 700 ml of the basal medium containing glucose as the substrate and inoculated with about 70 ml of PVA-immobilized clostridium tyrobutyricum. In addition, the upper region of the reactor was filled with either 700 ml of 1 M TOPO in oleyl alcohol or 700 ml of oleyl alcohol without TOPO. The fermentation was conducted at 37° C. for 40 hours, and the pH of the fermentation medium was not controlled in this example.

[3] = Extraction of butyric acid from CGM medium with TOA in oleyl alcohol (Example 1.1); format: physicochemical; conditions: CGM medium with 5% butyric acid, pH 4, 37° C.
Description: 50 ml of CGM culture medium (basal medium, see the table provided immediately below) containing 5% of butyric acid (the pH of the CGM medium decreased to 4 after the addition of the butyric acid) was mixed with 5 ml of 0.7 M, 1 M, […] of trioctylamine (C24H51N, CAS No. 1116-76-3, abbreviation: TOA) in oleyl alcohol at 37° C.
The concentrations of butyric acid in the CGM culture medium (i.e., the aqueous phase) and in the trioctylamine solution (i.e., the organic phase) were measured every 12 hours by high performance liquid chromatography (HPLC).
The butyric acid distribution ratio (D) was calculated by dividing the concentration of butyric acid in the organic medium by the concentration of butyric acid in the aqueous medium: […]

[4] = tested on: PVA-immobilized clostridium tyrobutyricum; assay: Extractive fermentation-column reactor, 1 M TOPO or TBP in oleyl alcohol (Example 4C); format: cell-based; conditions: 1 M extractant in oleyl alcohol as organic phase; 37° C., 100 hours
Description: In addition, the upper region of the reactor was filled with either 40 ml of 1 M TOPO in oleyl alcohol or 40 ml 1 M TBP in oleyl alcohol. The fermentation was conducted at 37° C. for 100 hours.

[5] = Extraction of butyric acid from CGM medium with TOPO in oleyl alcohol (Example 1.2); format: physicochemical; conditions: 24 hours, 37° C.
Description: The butyric acid distribution ratio (D) was calculated by dividing the concentration of butyric acid in the organic medium by the concentration of butyric acid in the aqueous medium:
[…] The pH of the culture medium was further adjusted to a value ranging from 4 to 6 with 4 N NaOH and 4 N HCl.
After 24 hours, the concentrations of butyric acid in the CGM culture medium (the aqueous phase) and in the TOPO solution (the organic phase) were measured by HPLC.

For `CCCCCCCC/C=C\CCCCCCCCO` [Oleyl alcohol only, oleyl alcohol], the “Glucose consumption rate %” value [1] was 80.7%, the “Bacterial Growth rate (OD/h)” value ([1]; OD at 600 nm) was 0.08 OD/h and the “% of glucose consumed” value [2] was 100%. The “Distribution ratio of butryic acid” value [2] was 0.86.
With `CCCCCCCCN(CCCCCCCC)CCCCCCCC` [TOA, trioctylamine] the “Butyric acid distribution ratio (D)” value ([3]; 0.7M TOA in oleyl alcohol) was 7.38, the “Butyric acid distribution ratio (D)” value ([3]; 1M TOA in oleyl alcohol) was 10.21 and the “Butyric acid distribution ratio (D)” value ([3]; 1.4M TOA in oleyl alcohol) was 13.82.
For `CCCCCCCCP(=O)(CCCCCCCC)CCCCCCCC` [TOPO, trioctylphosphine oxide], the “Cells growth (Δ OD600)” value [4] was 6.0, the “butyric acid distribution ratio” value ([5]; TOPO 0.1 M in oleyl alcohol, butyric acid 1%, pH 4) was 1.45 and the “butyric acid distribution ratio” value ([5]; TOPO 0.1 M in oleyl alcohol, butyric acid 1%, pH 5) was 0.31. The “butyric acid distribution ratio” value ([5]; TOPO 0.1 M in oleyl alcohol, butyric acid 1%, pH 6) was 0.00, the “butyric acid distribution ratio” value ([5]; TOPO 0.1 M in oleyl alcohol, butyric acid 2%, pH 4) was 2.12 and the “butyric acid distribution ratio” value ([5]; TOPO 0.1 M in oleyl alcohol, butyric acid 2%, pH 5) was 0.37. The “butyric acid distribution ratio” value ([5]; TOPO 0.1 M in oleyl alcohol, butyric acid 2%, pH 6) was 0.05, the “butyric acid distribution ratio” value ([5]; TOPO 0.1 M in oleyl alcohol, butyric acid 3%, pH 4) was 2.17 and the “butyric acid distribution ratio” value ([5]; TOPO 0.1 M in oleyl alcohol, butyric acid 3%, pH 5) was 0.26. The “butyric acid distribution ratio” value ([5]; TOPO 0.1 M in oleyl alcohol, butyric acid 3%, pH 6) was 0.00, the “butyric acid distribution ratio” value ([5]; TOPO 0.5 M in oleyl alcohol, butyric acid 1%, pH 4) was 1.91 and the “butyric acid distribution ratio” value ([5]; TOPO 0.5 M in oleyl alcohol, butyric acid 1%, pH 5) was 0.36. For the same compound, the “butyric acid distribution ratio” value ([5]; TOPO 0.5 M in oleyl alcohol, butyric acid 1%, pH 6) was 0.03, the “butyric acid distribution ratio” value ([5]; TOPO 0.5 M in oleyl alcohol, butyric acid 2%, pH 4) was 2.82 and the “butyric acid distribution ratio” value ([5]; TOPO 0.5 M in oleyl alcohol, butyric acid 2%, pH 5) was 0.37. For the same compound, the “butyric acid distribution ratio” value ([5]; TOPO 0.5 M in oleyl alcohol, butyric acid 2%, pH 6) was 0.06, the “butyric acid distribution ratio” value ([5]; TOPO 0.5 M in oleyl alcohol, butyric acid 3%, pH 4) was 2.90 and the “butyric acid distribution ratio” value ([5]; TOPO 0.5 M in oleyl alcohol, butyric acid 3%, pH 5) was 0.35. For the same compound, the “butyric acid distribution ratio” value ([5]; TOPO 0.5 M in oleyl alcohol, butyric acid 3%, pH 6) was 0.04, the “butyric acid distribution ratio” value ([5]; TOPO 1 M in oleyl alcohol, butyric acid 1%, pH 4) was 2.67 and the “butyric acid distribution ratio” value ([5]; TOPO 1 M in oleyl alcohol, butyric acid 1%, pH 5) was 0.42. For the same compound, the “butyric acid distribution ratio” value ([5]; TOPO 1 M in oleyl alcohol, butyric acid 1%, pH 6) was 0.06, the “butyric acid distribution ratio” value ([5]; TOPO 1 M in oleyl alcohol, butyric acid 2%, pH 4) was 3.88 and the “butyric acid distribution ratio” value ([5]; TOPO 1 M in oleyl alcohol, butyric acid 2%, pH 5) was 0.43. The “butyric acid distribution ratio” value ([5]; TOPO 1 M in oleyl alcohol, butyric acid 2%, pH 6) was 0.04, the “butyric acid distribution ratio” value ([5]; TOPO 1 M in oleyl alcohol, butyric acid 3%, pH 4) was 4.20 and the “butyric acid distribution ratio” value ([5]; TOPO 1 M in oleyl alcohol, butyric acid 3%, pH 5) was 0.35. The “butyric acid distribution ratio” value ([5]; TOPO 1 M in oleyl alcohol, butyric acid 3%, pH 6) was 0.04.
